The test system of one experiment is T-cell. The experiment in a line: loss of vesicle association with mouse CD8+ T cells – mouse 2C CD8+ T cells, flow cytometry, dose response (AID 485284). The experiment is classed as functional. (Flow cytometry measures light scatter and fluorescence of single cells or particles in a stream.)
A short description of experiment [1]: viability loss of HPDE-C7K cells – cell-based, fluorescence, HTS, primary screen (AID 431). The experiment is classed as functional. Particulars: Homo sapiens.
Experiment [2] can be described thus: HPDE-C7 pancreatic duct cell viability loss – fluorescence, HTS (AID 430). In kind it is functional, cell-based. Particulars: Homo sapiens.
Experiment [3] has as its target T1, Heat shock factor protein 1 (Mus musculus, UniProt P38532).
T1 sequence (P38532 whole entry): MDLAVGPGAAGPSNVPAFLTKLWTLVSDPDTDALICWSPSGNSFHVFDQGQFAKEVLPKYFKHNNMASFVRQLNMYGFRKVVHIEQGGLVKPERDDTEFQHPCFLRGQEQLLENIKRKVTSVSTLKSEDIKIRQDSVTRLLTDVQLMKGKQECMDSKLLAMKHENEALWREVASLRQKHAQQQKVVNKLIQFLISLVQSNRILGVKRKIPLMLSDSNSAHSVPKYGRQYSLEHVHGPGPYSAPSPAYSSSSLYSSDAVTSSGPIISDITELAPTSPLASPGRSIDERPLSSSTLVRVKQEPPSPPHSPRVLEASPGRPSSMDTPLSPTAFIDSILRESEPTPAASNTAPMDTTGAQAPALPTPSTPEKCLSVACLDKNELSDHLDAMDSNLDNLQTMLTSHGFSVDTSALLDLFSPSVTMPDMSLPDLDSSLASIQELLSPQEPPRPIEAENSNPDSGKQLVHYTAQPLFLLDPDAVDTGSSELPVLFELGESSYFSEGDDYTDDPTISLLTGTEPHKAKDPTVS
The experiment in a line: enhancement of HSF1-driven luciferase signal – cell-based, NIH3T3, luminescence, dose retest, confirmation (AID 435004).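 Note: stress induced by proteasome inhibitor MG132 added 30 min after compound; luciferase reporter driven by HSF1 response element in NIH3T3 cells; actives raise luminescence as potentiators of the MG132 stress response.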 The experiment is classed as functional.

In experiment [4] the target is T2, Short transient receptor potential channel 4 (Mus musculus, UniProt Q9QUQ5).
T2 sequence (Q9QUQ5 whole entry): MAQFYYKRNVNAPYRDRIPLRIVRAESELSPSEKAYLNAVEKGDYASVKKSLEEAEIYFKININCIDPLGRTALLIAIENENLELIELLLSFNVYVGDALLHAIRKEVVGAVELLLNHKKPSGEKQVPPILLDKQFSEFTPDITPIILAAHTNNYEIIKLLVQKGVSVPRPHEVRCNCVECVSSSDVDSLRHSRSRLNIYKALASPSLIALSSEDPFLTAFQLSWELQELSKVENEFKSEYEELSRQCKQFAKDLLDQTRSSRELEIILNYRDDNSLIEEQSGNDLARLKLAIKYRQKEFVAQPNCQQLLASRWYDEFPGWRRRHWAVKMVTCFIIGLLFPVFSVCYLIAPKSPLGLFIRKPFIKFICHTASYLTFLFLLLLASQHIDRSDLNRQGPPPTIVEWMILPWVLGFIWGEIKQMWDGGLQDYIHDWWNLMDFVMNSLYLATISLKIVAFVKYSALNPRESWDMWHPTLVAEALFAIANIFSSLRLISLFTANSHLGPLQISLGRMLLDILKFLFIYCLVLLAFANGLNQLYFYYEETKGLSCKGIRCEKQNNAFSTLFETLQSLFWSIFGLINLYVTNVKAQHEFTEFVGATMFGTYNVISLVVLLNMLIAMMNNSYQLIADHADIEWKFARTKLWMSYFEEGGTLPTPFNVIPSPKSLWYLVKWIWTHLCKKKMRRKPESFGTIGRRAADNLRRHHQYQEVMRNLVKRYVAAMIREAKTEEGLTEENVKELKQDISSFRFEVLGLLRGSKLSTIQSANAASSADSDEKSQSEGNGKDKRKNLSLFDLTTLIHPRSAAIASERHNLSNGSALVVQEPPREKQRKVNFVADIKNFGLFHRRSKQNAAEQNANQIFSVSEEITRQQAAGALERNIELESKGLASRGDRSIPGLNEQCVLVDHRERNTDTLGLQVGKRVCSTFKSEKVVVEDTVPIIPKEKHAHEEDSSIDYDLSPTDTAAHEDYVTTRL
The experiment in a line: potentiation of DAMGO-evoked TRPC4 calcium signal – cell-based, HEK293 TRPC4/mu-opioid, Fluo-4 calcium, EC20 DAMGO, dose response (AID 434941).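 Note: HEK293 cells coexpressing TRPC4 and mu opioid receptor stimulated by EC20 DAMGO.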 The experiment is classed as functional.

For experiment [5], the target named is T2, Short transient receptor potential channel 4. The experiment in a line: calcium entry via TRPC4 opening agents – cell-based, HEK293 TRPC4/mu-opioid, Fluo-4 calcium, dose response (AID 434937). The experiment is classed as functional.
The target in experiment [6] is T3, High affinity choline transporter 1 (Homo sapiens, UniProt Q9GZV3).
T3 sequence (Q9GZV3 whole entry): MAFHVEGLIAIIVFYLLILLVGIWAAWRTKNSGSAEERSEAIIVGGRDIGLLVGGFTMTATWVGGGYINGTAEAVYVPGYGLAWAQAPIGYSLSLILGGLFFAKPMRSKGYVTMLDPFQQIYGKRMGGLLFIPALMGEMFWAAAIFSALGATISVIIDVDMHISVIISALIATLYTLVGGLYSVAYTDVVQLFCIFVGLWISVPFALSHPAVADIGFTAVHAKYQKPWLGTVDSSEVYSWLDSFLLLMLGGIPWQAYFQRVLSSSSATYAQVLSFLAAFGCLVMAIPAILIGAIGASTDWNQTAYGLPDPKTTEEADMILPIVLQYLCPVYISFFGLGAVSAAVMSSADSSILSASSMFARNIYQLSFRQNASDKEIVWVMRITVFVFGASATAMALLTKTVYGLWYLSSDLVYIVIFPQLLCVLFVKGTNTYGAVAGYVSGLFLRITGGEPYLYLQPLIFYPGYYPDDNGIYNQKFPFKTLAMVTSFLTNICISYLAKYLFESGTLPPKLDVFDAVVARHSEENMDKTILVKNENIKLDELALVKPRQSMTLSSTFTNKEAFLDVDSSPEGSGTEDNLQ
The experiment in a line: human choline transporter blockers, potency – cell-based, 5-point CRC, membrane potential dye, dose response (AID 504840). The experiment is classed as functional.

The target of experiment [7] is T4, Corticotropin-releasing factor receptor 2/Corticotropin-releasing factor-binding protein (Homo sapiens, UniProt P24387+Q13324).
T4 sequence (Q13324 whole entry): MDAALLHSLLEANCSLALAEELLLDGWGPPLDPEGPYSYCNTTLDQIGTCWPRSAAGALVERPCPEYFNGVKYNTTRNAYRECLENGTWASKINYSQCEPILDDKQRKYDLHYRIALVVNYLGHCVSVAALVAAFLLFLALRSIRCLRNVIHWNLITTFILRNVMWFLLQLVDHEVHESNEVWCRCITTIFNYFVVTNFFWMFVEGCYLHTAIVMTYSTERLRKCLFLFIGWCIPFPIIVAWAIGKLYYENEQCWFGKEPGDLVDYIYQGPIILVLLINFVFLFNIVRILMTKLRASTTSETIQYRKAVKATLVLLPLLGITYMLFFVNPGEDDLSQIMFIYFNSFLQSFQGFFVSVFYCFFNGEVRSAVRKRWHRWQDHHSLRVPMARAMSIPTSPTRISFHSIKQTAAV
T4 sequence (P24387 whole entry): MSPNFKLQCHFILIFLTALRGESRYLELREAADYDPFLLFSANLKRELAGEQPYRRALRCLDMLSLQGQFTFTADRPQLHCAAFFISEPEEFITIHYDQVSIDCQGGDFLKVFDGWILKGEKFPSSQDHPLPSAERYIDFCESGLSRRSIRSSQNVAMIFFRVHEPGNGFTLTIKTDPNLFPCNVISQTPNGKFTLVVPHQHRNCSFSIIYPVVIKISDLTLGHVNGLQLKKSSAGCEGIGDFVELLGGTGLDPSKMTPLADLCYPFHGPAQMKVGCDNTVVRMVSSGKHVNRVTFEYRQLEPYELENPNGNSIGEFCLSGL
Nature of the experiment: Dose Response confirmation of uHTS hits for small molecule antagonists of the CRF-binding protein and CRF-R2 receptor complex. The conditions noted are these: read-out: IC50_Mean. In kind it is functional.

Experiment [8] is described as follows: Luminescence Cell-Based Dose Response HTS to Identify Activators of Luciferase Translation or Activity in H4 […] Cells. [Related pubchem assays: 1829 (Project Summary), 1814 (Primary HTS)]. The experiment is classed as functional.
The nature of experiment [9]: Luminescence Cell-Based Dose Confirmation HTS to Identify Activators of 5'UTR Stem-Loop Driven Alpha-Synuclein mRNA Translation in H4 Neuroglioblastoma Cells. [Related pubchem assays: 1829 (Project Summary), 1814 (Primary HTS)]. The experiment is classed as functional.
Experiment [10] deals with Envelope glycoprotein gp160 (Human immunodeficiency virus 1, UniProt Q6QLK5). The experiment in a line: cell-free HIV fusion peptide-binding blockers – biochemical, uHTS, fluorescence dequenching, […] (AID 1986).
Envelope glycoprotein gp160, sequence (Q6QLK5 whole entry, the tested form may be a part): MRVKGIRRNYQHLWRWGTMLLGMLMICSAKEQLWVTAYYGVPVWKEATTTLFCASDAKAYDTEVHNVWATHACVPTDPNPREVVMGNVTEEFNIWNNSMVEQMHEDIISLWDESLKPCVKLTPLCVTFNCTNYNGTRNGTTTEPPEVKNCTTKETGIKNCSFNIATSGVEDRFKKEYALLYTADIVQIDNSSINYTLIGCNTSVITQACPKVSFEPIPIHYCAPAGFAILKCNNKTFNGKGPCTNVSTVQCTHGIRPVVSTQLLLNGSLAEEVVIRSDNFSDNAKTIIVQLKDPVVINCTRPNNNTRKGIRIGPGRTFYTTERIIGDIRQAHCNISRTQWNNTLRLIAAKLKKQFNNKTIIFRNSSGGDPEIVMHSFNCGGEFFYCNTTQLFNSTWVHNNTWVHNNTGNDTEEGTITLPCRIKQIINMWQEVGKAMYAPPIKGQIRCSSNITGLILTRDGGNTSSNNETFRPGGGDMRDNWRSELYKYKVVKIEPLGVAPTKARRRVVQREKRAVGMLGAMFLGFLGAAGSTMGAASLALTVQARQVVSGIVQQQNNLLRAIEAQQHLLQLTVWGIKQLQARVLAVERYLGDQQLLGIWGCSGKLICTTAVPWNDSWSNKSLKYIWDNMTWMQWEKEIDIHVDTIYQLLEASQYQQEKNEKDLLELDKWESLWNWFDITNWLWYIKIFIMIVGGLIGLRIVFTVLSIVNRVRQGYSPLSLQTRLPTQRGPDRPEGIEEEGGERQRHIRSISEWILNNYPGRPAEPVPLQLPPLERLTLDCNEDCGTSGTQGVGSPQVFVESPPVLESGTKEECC
For experiment [11], the target named is T4, Corticotropin-releasing factor receptor 2/Corticotropin-releasing factor-binding protein. Nature of the experiment: activators of CRF receptor 2 with binding protein – uHTS hits, confirmation (AID 602473). The experiment is classed as functional. The conditions noted are these: read-out: EC50_Mean.
Experiment [12] is described as follows: blockers of CRF-binding protein–CRF-R2 complex – cell-based, uHTS hits, 384-well, dose response (AID 651639). The experiment is classed as functional, Homo sapiens. Particulars: read-out: IC50_Mean.
A further experiment relates to H4. The experiment in a line: Luminescence Cell-Based Dose Response HTS to Identify Activators of 5'UTR Stem-Loop Driven Prion Protein mRNA Translation in H4 Neuroglioblastoma Cells. [Related pubchem assays: 1829 (Project Summary), 1814 (Primary HTS)]. Particulars: Homo sapiens. The experiment is classed as functional.

The source of these data is ChEMBL document CHEMBL1201862, “PubChem BioAssay data set” (2004).

Calls of active or inactive are those of the source.

Turning to `O=C(NCCN1CCN(c2ccccc2)CC1)c1cccc(Br)c1`, the EC50 in the experiment with T-cell was 7.17 µM (active).
Consider `CCCCc1cc(O)c(CCCC)c(O)c1`, for which the EC50 in [1] was 9.78 µM (active); in experiment [2], 8.86 µM (active); in [3], 9.33 µM (active); in experiment [4] it was 1.88 µM (active); in [5], 0.473 µM (active). In experiment [6], the IC50 was 6.03 µM (active).
As to `CCS(=O)(=O)C1=NSC2=NC(=O)/C(=C\c3cc(C)n(-c4cccc(OC)c4)c3C)C(=N)N21`, the IC50 was 5.1 µM (active) in [7], > 99 µM (inactive) in [10] and 6.75 µM (active) in experiment [12]. The EC50 in experiment [8] is > 120 µM (not active); in experiment [9], > 120 µM (not active); in [11], > 53 µM (inactive); with H4, > 120 µM (not active).
